# Measurements from patent US12617759B2, “Modifier of four-membered ring derivative, preparation method and application thereof” (Shanghai Hansoh Biomedical Co., Ltd., priority 2019, dated 2026).
# Like-named read-outs stand apart in the source and are kept apart here.
# Tests used:
# [1] = Stability in rat liver microsome in vitro; format: in vitro ADME, SD rat
# Procedure: (§1) To evaluate the metabolic stability of the compounds of the present invention in liver microsome in vitro.
# (§2) Formulation of the working solution of the compound: 2 μL of the stock solution of the compound was added to 998 μL of phosphate buffer, and the final concentration was 20 μM.
# (§3) 78.1 μL of 20 mg/mL microsome was diluted to 2.5 mL with 100 mM phosphate buffer and mixed well, and the final concentration was 0.625 mg/mL.
# (§4) 33.3 mg of NADPH and 25.8 mg of UDPGA were weighed respectively, followed by the addition of 2 mL of 100 mM phosphate buffer. The final concentrations were 20 mM.
# (§5) 1 mg of Alamethicin was weighed, to which 200 μL of DMSO was added to obtain a 5 mg/mL solution. 10 μL of this solution was added to 990 μL of phosphate buffer (pH 7.4), and the final concentration was 50 μg/mL.
# (§6) 400 μL of the formulated liver microsome, 25 μL of the working solution of the compound (10 μM) and 25 μL of Alamethicin (50 μg/mL) were added to a 96-well plate successively, which was then pre-incubated at 37° C. for 10 min. 50 μL of the formulated NADPH/UDPGA was added to initiate the reaction, and the plate was incubated at 37° C. The total volume of the reaction system was 500 μL. The final contents of the components are as follows:
# (§7) […] The resulting sample was centrifuged at 4000 g for 10 min, and the supernatant was collected for LC-MS/MS analysis.
# [2] = Pharmacokinetic assay in Balb/c mice (plasma and brain tissue); format: in vivo; settings: male, mouse, po, p.o. 5 mg/kg; for AUC(0-t): read-out: Area under curve AUC0-t; for Tmax: read-out: Peak time tmax; for Cmax: read-out: Plasma concentration Cmax
# Procedure: Balb/c mice were used as test animals. The pharmacokinetic behavior in mouse body (plasma and brain tissue) of the compounds of Examples of the present invention orally administrated at a dose of 5 mg/kg was studied.
# Male Balb/c mice (12 mice per group), purchased from Shanghai Jiesijie Laboratory Animal Co., LTD, with Certificate No.: SCXK (Shanghai) 2013-0006 N0.311620400001794.
# The test compound was dissolved in 0.5% CMC-Na (1% Tween80) by sonication to formulate a clear solution or homogeneous suspension.
# After an overnight fast, male Balb/c mice (12 mice per group) were administered p.o. with the test compound at an administration dose of 5 mg/kg and an administration volume of 10 mL/kg.
# 0.2 mL of blood was taken from the heart of the mouse before administration and at 1, 2, 4, 8 and 24 hours after administration, and the mice were sacrificed with CO2. The samples were stored in EDTA-K2 tubes, and centrifuged for 6 minutes at 4° C., 6000 rpm to separate the plasma. The plasma samples were stored at −80° C. Whole brain tissue was taken out, weighed, placed in a 2 mL centrifuge tube, and stored at −80° C.
# • 1) 160 μL of acetonitrile was added to 40 μL of the plasma sample for precipitation, and then the mixture was centrifuged for 5 to 20 minutes at 3500×g. • 2) 90 μL of acetonitrile containing internal standard (100 ng/mL) was added to 30 µL of the plasma and brain homogenate sample for precipitation, and then the mixture was centrifuged for 8 minutes at 13000 rpm. • 3) 70 μL of water was added to 70 μL of the treated supernatant and mixed by vortex for 10 minutes. 20 μL of the supernatant was taken to analyze the concentration of the test compound by LC/MS/MS. LC/MS/MS analytical instrument: AB Sciex API 4000 Qtrap. 2.7 Liquid Chromatography Analysis: • Liquid chromatography condition: Shimadzu LC-20AD pump • Chromatographic column: Agilent ZORBAX XDB-C18 (50×2.1 mm, 3.5 m); Mobile phase: Eluent A was 0.1% formic acid in water, and Eluent B was acetonitrile • Flow rate: 0.4 mL/min • Elution time: 0-4.0 minutes, the eluent is as follows:
# The main parameters of pharmacokinetics were calculated by WinNonlin 6.1.
# rats = assay: Pharmacodynamic model of active escape experiment in rats; format: in vivo; settings: F344 rats, oral dose 1 mg/kg one hour before test; vehicle 91-98%
# Procedure: To evaluate the anti-schizophrenic effect of the compounds using the pharmacodynamic model of the active escape experiment in rats.
# A prescription amount of the compound was weighed, followed by the addition of a prescription volume of 0.5% CMC-Na+1% Tween 80 solution. The compound solution was formulated before the administration, stored at 2 to 8° C., and used within 4 days.
# 5.2 Baseline Test and Grouping
# The day before the compound screening test, a baseline test was performed. The test process was the same as 5.1.1 to 5.1.3, and the number of the baseline test was 20. The animals whose number of avoids reached 16 (80%) were grouped according to the number of avoids, 10 animals per group. The first group was administered with the vehicle orally, and the other groups were administered with the corresponding test compounds according to the experimental design.
# The compound was administered orally (5 mL/kg) one hour before the test; The test process was the same as 5.1.1 to 5.1.4, and the number of the test was 20.
# The following data was collected by the software for data analysis: • Number of avoids of the animal; • Number of escape failures of the animal; • Escape latency of the animal; • All measurement data were expressed as mean±standard error (Mean±SEM), and analyzed by Graphpad 6 statistical software. The difference was considered to be significant when p<0.05. 7.
# [3] = Stability in human liver microsome in vitro; format: in vitro ADME
# Procedure: as §1, §2, §3, §4, §5, §6, §7
# [4] = Stability in dog liver microsome in vitro; format: in vitro ADME
# Procedure: as §1, §2, §3, §4, §5, §6, §7
smiles,measurement,setting,value
"O=C(N[C@H]1C[C@H](CCN2CCN(c3cccc(Cl)c3Cl)CC2)C1)c1ccon1 [Example 25A, N-(Trans-3-(2-(4-(2,3-dichlorophenyl)piperazin-1-yl)ethyl)cyclobutyl)isoxazole-3-carboxamide]","Remaining (%, 120 min)",[1]; 120 min,27.0%
same,half-life at 1 μM,"[1]; SD, rat liver microsomes, pH 7.4, 1 μM compound, NADPH/UDPGA, read-out: Half life (t1/2)",1.01 h
same,microsomal CLint at 1 μM,"[1]; SD, rat liver microsomes, pH 7.4, 1 μM compound, NADPH/UDPGA, read-out: Intrinsic clearance rate (CLint)",22.9 µL/min/mg
same,AUC(0-t),[2]; Brain,11900 ng·h/mL
same,Tmax,[2]; Brain,1 h
same,Cmax,[2]; Brain,1540 ng/mL
same,AUC(0-t),[2]; Plasma,3050 ng·h/mL
same,AUC(0-inf),"[2]; Plasma, read-out: Area under curve AUC0-∞",12900 ng·h/mL
same,MRT,"[2]; Plasma, read-out: Average residence time MRT",6.2 h
same,half-life,"[2]; Plasma, read-out: Half life t1/2 (converted)",5.6 h
same,Tmax,[2]; Plasma,0.5 h
same,Cmax,[2]; Plasma,362 ng/mL
same,CAR value,rats,18%
same,"Remaining (%, 120 min)",[3]; 120 min,38.8%
same,half-life at 1 μM,"[3]; human liver microsomes, pH 7.4, 1 μM compound, NADPH/UDPGA, read-out: Half life (t1/2)",1.5 h
same,microsomal CLint at 1 μM,"[3]; human liver microsomes, pH 7.4, 1 μM compound, NADPH/UDPGA, read-out: Intrinsic clearance rate (CLint)",15.4 µL/min/mg
same,"Remaining (%, 120 min)",[4]; 120 min,30.2%
same,half-life at 1 μM,"[4]; dog liver microsomes, pH 7.4, 1 μM compound, NADPH/UDPGA, read-out: Half life (t1/2)",1.16 h
same,microsomal CLint at 1 μM,"[4]; dog liver microsomes, pH 7.4, 1 μM compound, NADPH/UDPGA, read-out: Intrinsic clearance rate (CLint)",19.9 µL/min/mg
